Target: USP7 (Homo sapiens, UniProt Q93009)
Test: USP7 inhibitory potency (IC50)
Type: biochemical
Method: Activity for compounds described herein is provided in Table 2, wherein potency levels are provided as follows: (Potency: USP7 IC50: A<0.01 μM; B=0.01-0.1 μM; C=>0.1 μM.

Chain of USP7 (Q93009 whole entry): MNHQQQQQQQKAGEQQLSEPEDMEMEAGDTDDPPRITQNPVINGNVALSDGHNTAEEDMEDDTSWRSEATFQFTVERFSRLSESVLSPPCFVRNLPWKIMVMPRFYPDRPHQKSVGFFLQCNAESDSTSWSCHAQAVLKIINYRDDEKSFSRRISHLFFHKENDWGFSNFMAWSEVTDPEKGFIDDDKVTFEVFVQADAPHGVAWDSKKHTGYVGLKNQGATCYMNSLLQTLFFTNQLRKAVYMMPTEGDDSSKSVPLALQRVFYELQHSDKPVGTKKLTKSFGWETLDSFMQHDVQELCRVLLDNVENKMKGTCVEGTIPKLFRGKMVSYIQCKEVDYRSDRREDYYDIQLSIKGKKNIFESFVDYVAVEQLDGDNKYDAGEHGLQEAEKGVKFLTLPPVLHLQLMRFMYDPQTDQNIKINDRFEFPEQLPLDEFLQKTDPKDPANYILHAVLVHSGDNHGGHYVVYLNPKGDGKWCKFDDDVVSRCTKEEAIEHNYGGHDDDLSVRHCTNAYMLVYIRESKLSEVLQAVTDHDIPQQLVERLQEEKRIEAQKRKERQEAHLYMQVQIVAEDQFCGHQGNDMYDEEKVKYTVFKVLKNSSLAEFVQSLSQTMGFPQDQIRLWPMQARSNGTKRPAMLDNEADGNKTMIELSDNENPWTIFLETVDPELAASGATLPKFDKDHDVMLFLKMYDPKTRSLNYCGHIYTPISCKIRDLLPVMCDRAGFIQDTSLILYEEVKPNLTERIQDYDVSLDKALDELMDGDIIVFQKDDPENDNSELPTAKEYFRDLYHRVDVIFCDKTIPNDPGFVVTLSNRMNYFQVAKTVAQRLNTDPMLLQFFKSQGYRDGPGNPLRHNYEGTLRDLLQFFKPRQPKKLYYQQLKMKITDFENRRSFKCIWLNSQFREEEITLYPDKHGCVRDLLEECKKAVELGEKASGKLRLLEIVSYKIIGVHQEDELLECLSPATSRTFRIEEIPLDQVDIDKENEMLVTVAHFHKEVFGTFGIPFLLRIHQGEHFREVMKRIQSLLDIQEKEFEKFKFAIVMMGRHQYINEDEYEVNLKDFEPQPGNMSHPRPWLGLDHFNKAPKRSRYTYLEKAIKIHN

| SMILES | IC50 |
| --- | --- |
| CCC1CCC(=O)N1Cc1cc2ncnc(-c3cc(Cl)cc(C)c3C[C@@H]3CNCC(C)(C)O3)c2s1 (stereo partly drawn) [Example 232, 1-((4-(5-chloro-2-(((R)-6,6-dimethylmorpholin-2-yl)methyl)-3-methylphenyl)thieno[3,2-d]pyrimidin-6-yl)methyl)-5-ethylpyrrolidin-2-one] | 10 to 100 nM |
| Cc1cc(Cl)cc(-c2ccnc3cc(CN4C(=O)CCC4=O)sc23)c1CN1CCNCC1C(F)F (stereo not drawn) [Example 16, 1-((7-(5-chloro-2-((2-(difluoromethyl)piperazin-1-yl)methyl)-3-methylphenyl)thieno[3,2-b]pyridin-2-yl)methyl)pyrrolidine-2,5-dione] | 10 to 100 nM |
| Cc1cc(Cl)cc(-c2ncnc3cc(Cn4c(C#N)cccc4=O)sc23)c1C[C@@H]1CNCC(C)(C)O1 [Example 262, (R)-1-((4-(5-chloro-2-((6,6-dimethylmorpholin-2-yl)methyl)-3-methylphenyl)thieno[3,2-d]pyrimidin-6-yl)methyl)-6-oxo-1,6-dihydropyridine-2-carbonitrile] | > 100 nM |
| Cc1cc(Cl)cc(-c2ncnc3cc(CN4C(=O)C5C(C4=O)C5(C)C)sc23)c1CN1[C@@H](C)CNC[C@@H]1C (stereo partly drawn) [Example 56, 3-((4-(5-chloro-2-(((2S,6S)-2,6-dimethylpiperazin-1-yl)methyl)-3-methylphenyl)thieno[3,2-d]pyrimidin-6-yl)methyl)-6,6-dimethyl-3-azabicyclo[3.1.0]hexane-2,4-dione] | 10 to 100 nM |
| Cc1cc(Cl)cc(-c2ccnc3c(F)c(CN4C(=O)CC[C@@H]4CF)sc23)c1C[C@@H]1CNCCO1 [Example 149, (R)-1-((7-(5-chloro-3-methyl-2-(((R)-morpholin-2-yl)methyl)phenyl)-3-fluorothieno[3,2-b]pyridin-2-yl)methyl)-5-(fluoromethyl)pyrrolidin-2-one] | 10 to 100 nM |
| Cc1cc(Cl)cc(-c2ncnc3cc(CN4C(=O)CN(C)C4=O)sc23)c1CN1C[C@@H](C)NC[C@@H]1C [Example 80, 3-((4-(5-chloro-2-(((2S,5R)-2,5-dimethylpiperazin-1-yl)methyl)-3-methylphenyl)thieno[3,2-d]pyrimidin-6-yl)methyl)-1-methylimidazolidine-2,4-dione] | < 10 nM |
| Cc1cc(Cl)cc(-c2ncnc3cc(CN4C(=O)CCN(CC(F)(F)F)C4=O)sc23)c1C[C@@H]1CNCC(C)(C)O1 [Example 236, (R)-3-((4-(5-chloro-2-((6,6-dimethylmorpholin-2-yl)methyl)-3-methylphenyl)thieno[3,2-d]pyrimidin-6-yl)methyl)-1-(2,2,2-trifluoroethyl)dihydropyrimidine-2,4(1H,3H)-dione] | < 10 nM |
| Cc1cc(Cl)cc(-c2ccnc3cc(CN4C(=O)C5CC5C4=O)sc23)c1CN1CCNC(=O)C1C (stereo not drawn) [Example 40, 3-((7-(5-chloro-3-methyl-2-((2-methyl-3-oxopiperazin-1-yl)methyl)phenyl)thieno[3,2-b]pyridin-2-yl)methyl)-3-azabicyclo[3.1.0]hexane-2,4-dione] | 10 to 100 nM |
| Cc1cc(Cl)cc(-c2ccnc3cc(CN4C(=O)C5CC5C4=O)sc23)c1CN1C[C@H](C)NC[C@@H]1C (stereo partly drawn) [Example 33, 3-((7-(5-chloro-2-(((2S,5 S)-2,5-dimethylpiperazin-1-yl)methyl)-3-methylphenyl)thieno[3,2-b]pyridin-2-yl)methyl)-3-azabicyclo[3.1.0]hexane-2,4-dione] | < 10 nM |
| Cc1cc(Cl)cc(-c2ccnc3cc(CN4C(=O)CCC4=O)sc23)c1CN1CCNC[C@H]1C [Example 7, (R)-1-((7-(5-chloro-3-methyl-2-((2-methylpiperazin-1-yl)methyl)phenyl)thieno[3,2-b]pyridin-2-yl)methyl)pyrrolidine-2,5-dione] | 10 to 100 nM |
| Cc1cc(Cl)cc(-c2ccnc3cc(CN4C(=O)CCCC4C(F)(F)F)sc23)c1CC1CNCCO1 (stereo not drawn) [Example 122, 1-((7-(5-chloro-3-methyl-2-(morpholin-2-ylmethyl)phenyl)thieno[3,2-b]pyridin-2-yl)methyl)-6-(trifluoromethyl)piperidin-2-one] | > 100 nM |
| Cc1cc(Cl)cc(-c2ccnc3cc(CN4C(=O)CCC4=O)sc23)c1CN1CCN(CCO)C[C@@H]1C [Example 13, (S)-1-((7-(5-chloro-2-((4-(2-hydroxyethyl)-2-methylpiperazin-1-yl)methyl)-3-methylphenyl)thieno[3,2-b]pyridin-2-yl)methyl)pyrrolidine-2,5-dione] | < 10 nM |
| CN1CCC(=O)N(Cc2cc3nccc(-c4cc(Cl)cc(Cl)c4CC4CNCCO4)c3s2)C1=O (stereo not drawn) [Example 130, 3-((7-(3,5-dichloro-2-(morpholin-2-ylmethyl)phenyl)thieno[3,2-b]pyridin-2-yl)methyl)-1-methyldihydropyrimidine-2,4(1H,3H)-dione] | < 10 nM |

Second part, the molecule after the results:

| IC50 | SMILES |
| --- | --- |
| < 10 nM | Cc1cc(Cl)cc(-c2ncnc3cc(CN4C(=O)CC[C@@H]4C(F)F)sc23)c1C[C@@H]1CNCC(C)(C)O1 [Example 242, (R)-1-((4-(5-chloro-2-(((R)-6,6-dimethylmorpholin-2-yl)methyl)-3-methylphenyl)thieno[3,2-d]pyrimidin-6-yl)methyl)-5-(difluoromethyl)pyrrolidin-2-one] |
| < 10 nM | Cc1cc(Cl)cc(-c2ccnc3cc(CN4C(=O)CCC4=O)sc23)c1CN1CCN(C)C[C@@H]1C [Example 3, (S)-1-((7-(5-chloro-2-((2,4-dimethylpiperazin-1 yl)methyl)-3-methylphenyl)thieno[3,2-b]pyridin-2-yl)methyl)pyrrolidine-2,5-dione] |
| < 10 nM | Cc1cc(Cl)cc(-c2ccnc3cc(CN4C(=O)CCC4=O)sc23)c1CN1[C@H](C)CNC[C@@H]1C [Example 22, 1-((7-(5-chloro-2-(((2R,6S)-2,6-dimethylpiperazin-1-yl)methyl)-3-methylphenyl)thieno[3,2-b]pyridin-2-yl)methyl)pyrrolidine-2,5-dione] |
| < 10 nM | Cc1cc(Cl)cc(-c2ccnc3cc(CN4C(=O)CCC4=O)sc23)c1CN1CC2CCC1CN2 (stereo not drawn) [Example 9, 1-((7-(2-((2,5-diazabicyclo[2.2.2]octan-2-yl)methyl)-5-chloro-3-methylphenyl)thieno[3,2-b]pyridin-2-yl)methyl)pyrrolidine-2,5-dione] |
| < 10 nM | Cc1cc(Cl)cc(-c2ncnc3cc(CN4C(=O)C5C(C4=O)C5(C)C)sc23)c1CC1CNCCO1 (stereo not drawn) [Example 151, 3-((4-(5-chloro-3-methyl-2-(morpholin-2-ylmethyl)phenyl)thieno[3,2-d]pyrimidin-6-yl)methyl)-6,6-dimethyl-3-azabicyclo[3.1.0]hexane-2,4-dione] |
| < 10 nM | Cc1cc(Cl)cc(-c2ncnc3cc(CN4C(=O)CCC4=O)sc23)c1CC1CNCC(C)(C)O1 (stereo not drawn) [Example 190, 1-((4-(5-chloro-2-((6,6-dimethylmorpholin-2-yl)methyl)-3-methylphenyl)thieno[3,2-d]pyrimidin-6-yl)methyl)pyrrolidine-2,5-dione] |
| < 10 nM | Cc1cc(Cl)cc(-c2ncnc3cc(CN4C(=O)CN(CCO)C4=O)sc23)c1C[C@@H]1CNCC(C)(C)O1 [Example 276, (R)-3-((4-(5-chloro-2-((6,6-dimethylmorpholin-2-yl)methyl)-3-methylphenyl)thieno[3,2-d]pyrimidin-6-yl)methyl)-1-(2-hydroxyethyl)imidazolidine-2,4-dione] |
| < 10 nM | Cc1cc(Cl)cc(-c2ncnc3cc(CN4C(=O)CCCC4=O)sc23)c1CC1CNCCO1 (stereo not drawn) [Example 163, 1-((4-(5-chloro-3-methyl-2-(morpholin-2-ylmethyl)phenyl)thieno[3,2-d]pyrimidin-6-yl)methyl)piperidine-2,6-dione] |
